In PubChem BioAssay AID248 (DTP/NCI, 2004):
Values joined by “and” are separate entries in the source; they are usually repeats but may differ in a detail not shown here. Identical values can stand only once. Inconclusive results and toxic doses are left out. Rule as the data show it: active = T/C of 150% or more; inactive = T/C below 125%.

Tested on: L1210 leukemia ip in BDF1 mice, survival T/C
Experiment: NCI In Vivo Anticancer Drug Screen. Data for tumor model L1210 Leukemia (intraperitoneal) in B6D2F1 (BDF1) mice
Settings: endpoint: mean survival time, higher = longer survival
Procedure, shortened: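 Survival endpoint. Drug-treated group vs vehicle group, expressed as T divided by C. Tumor passaged by transplantation.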

[1] = dose: 25.0 mg/kg/injection, schedule: Q04DX002 (ip), vehicle: Klucel (hydroxypropylcellulose) (HPC)
[2] = dose: 100.0 mg/kg/injection, schedule: Q04DX003 (ip), vehicle: Klucel (hydroxypropylcellulose) (HPC)
[3] = dose: 200.0 mg/kg/injection, schedule: Q04DX003 (ip), vehicle: Klucel (hydroxypropylcellulose) (HPC)
[4] = dose: 400.0 mg/kg/injection, schedule: Q04DX003 (ip), vehicle: Klucel (hydroxypropylcellulose) (HPC)
[5] = dose: 100.0 mg/kg/injection, schedule: Q01DX009 (ip), vehicle: saline
[6] = dose: 100.0 mg/kg/injection, schedule: Q01DX001 (ip), vehicle: saline
[7] = dose: 200.0 mg/kg/injection, schedule: Q01DX001 (ip), vehicle: saline
[8] = dose: 400.0 mg/kg/injection, schedule: Q01DX001 (ip), vehicle: saline
[9] = dose: 100.0 mg/kg/injection, schedule: Q01DX009 (ip), vehicle: Klucel (hydroxypropylcellulose) (HPC)
[10] = dose: 200.0 mg/kg/injection, schedule: Q01DX009 (ip), vehicle: Klucel (hydroxypropylcellulose) (HPC)
[11] = dose: 400.0 mg/kg/injection, schedule: Q01DX009 (ip), vehicle: Klucel (hydroxypropylcellulose) (HPC)

Measured: T/C

C(/C=C/C=C/Nc1ccc(N=Nc2ccccc2)cc1)=Nc1ccc(N=Nc2ccccc2)cc1
inactive: dose: 100.0 mg/kg/injection, schedule: Q01DX009 (ip), vehicle: saline sonified 94 % of control | dose: 100.0 mg/kg/injection, schedule: Q04DX003 (ip), vehicle: saline sonified 94 % of control | dose: 200.0 mg/kg/injection, schedule: Q01DX009 (ip), vehicle: saline sonified 94 % of control | dose: 200.0 mg/kg/injection, schedule: Q04DX003 (ip), vehicle: saline sonified 93 % of control | dose: 400.0 mg/kg/injection, schedule: Q04DX003 (ip), vehicle: saline sonified 91 % of control

CC(C)(SCCc1ccc([N+](=O)[O-])cc1)C(N)C(=O)O (configuration not stated)
inactive: dose: 12.0 mg/kg/injection, schedule: Q01DX009 (ip), vehicle: Klucel (hydroxypropylcellulose) (HPC) 93 % of control | dose: 12.5 mg/kg/injection, schedule: Q04DX003 (ip), vehicle: Klucel (hydroxypropylcellulose) (HPC) 91 % of control | dose: 25.0 mg/kg/injection, schedule: Q01DX009 (ip), vehicle: Klucel (hydroxypropylcellulose) (HPC) 104 % of control | dose: 25.0 mg/kg/injection, schedule: Q04DX003 (ip), vehicle: Klucel (hydroxypropylcellulose) (HPC) 91 % of control | dose: 50.0 mg/kg/injection, schedule: Q01DX009 (ip), vehicle: Klucel (hydroxypropylcellulose) (HPC) 103 % of control | dose: 50.0 mg/kg/injection, schedule: Q04DX003 (ip), vehicle: Klucel (hydroxypropylcellulose) (HPC) 93 % of control

CCCCC(C=O)(C=C=C(C)C)CC (configuration not stated)
inactive: dose: 100.0 mg/kg/injection, schedule: Q01DX009 (ip), vehicle: saline with Tween-80 89 % of control | dose: 100.0 mg/kg/injection, schedule: Q04DX003 (ip), vehicle: saline with Tween-80 92 % of control | dose: 200.0 mg/kg/injection, schedule: Q01DX009 (ip), vehicle: saline with Tween-80 91 % of control | dose: 200.0 mg/kg/injection, schedule: Q04DX003 (ip), vehicle: saline with Tween-80 93 % of control | dose: 400.0 mg/kg/injection, schedule: Q01DX009 (ip), vehicle: saline with Tween-80 89 % of control | dose: 400.0 mg/kg/injection, schedule: Q04DX003 (ip), vehicle: saline with Tween-80 98 % of control

c1ccc2c(c1)Sc1ccccc1N2C[C@H]1CCCN2CCCC[C@H]12
inactive: dose: 75.0 mg/kg/injection, schedule: Q01DX009 (ip), vehicle: Klucel (hydroxypropylcellulose) (HPC) 102 % of control | dose: 75.0 mg/kg/injection, schedule: Q04DX003 (ip), vehicle: Klucel (hydroxypropylcellulose) (HPC) 102 % of control | dose: 150.0 mg/kg/injection, schedule: Q01DX009 (ip), vehicle: Klucel (hydroxypropylcellulose) (HPC) 91 % of control | dose: 150.0 mg/kg/injection, schedule: Q04DX003 (ip), vehicle: Klucel (hydroxypropylcellulose) (HPC) 97 % of control | dose: 300.0 mg/kg/injection, schedule: Q01DX009 (ip), vehicle: Klucel (hydroxypropylcellulose) (HPC) 89 % of control | dose: 300.0 mg/kg/injection, schedule: Q04DX003 (ip), vehicle: Klucel (hydroxypropylcellulose) (HPC) 102 % of control

O=C1C=CC(=O)c2[nH]c(-c3ccccc3)cc21
inactive: dose: 12.5 mg/kg/injection, schedule: Q04DX002 (ip), vehicle: Klucel (hydroxypropylcellulose) (HPC) 93 % of control | [1] 105 % of control

COC(=O)c1c2c(nc3ccccc13)-c1ccccc1C(C)(C)C2Br (configuration not stated)
inactive: [2] 95 % of control | [3] 92 % of control | [4] 95 % of control

NC1(c2ccccc2)CC1
inactive: [1] 90 % of control | dose: 50.0 mg/kg/injection, schedule: Q04DX002 (ip), vehicle: Klucel (hydroxypropylcellulose) (HPC) 93 % of control | dose: 100.0 mg/kg/injection, schedule: Q04DX002 (ip), vehicle: Klucel (hydroxypropylcellulose) (HPC) 95 % of control and 98 % of control

O=C(c1ccccc1)c1ccc[n+](Cc2c(Cl)cccc2Cl)c1
inactive: dose: 75.0 mg/kg/injection, schedule: Q01DX001 (ip), vehicle: saline 101 % of control

O=C(OCCN1CCCCC1)C(c1ccccc1)C1(O)CCCC1 (configuration not stated)
inactive: dose: 50.0 mg/kg/injection, schedule: Q01DX009 (ip), vehicle: saline 106 % of control | [5] 116 % of control

CC(C)(Br)C(=O)C(Br)Br
inactive: [6] 106 % of control | [7] 102 % of control

O=S(=O)(c1cc(Br)ccc1O)c1cc(Br)ccc1O
inactive: [6] 97 % of control | dose: 100.0 mg/kg/injection, schedule: Q04DX002 (ip), vehicle: gum acacia 93 % of control | [7] 95 % of control | dose: 200.0 mg/kg/injection, schedule: Q04DX002 (ip), vehicle: gum acacia 93 % of control | [8] 103 % of control | dose: 400.0 mg/kg/injection, schedule: Q04DX002 (ip), vehicle: gum acacia 93 % of control

NNc1nc(Nc2ccccc2)nc(Nc2ccccc2)n1
inactive: [6] 89 % of control | [7] 95 % of control | [8] 96 % of control

O=S(=O)(CC(Br)c1ccccc1)c1ccccc1 (configuration not stated)
inactive: [5] 92 % of control | dose: 100.0 mg/kg/injection, schedule: Q04DX003 (ip), vehicle: saline 101 % of control | dose: 200.0 mg/kg/injection, schedule: Q01DX009 (ip), vehicle: saline 95 % of control | dose: 200.0 mg/kg/injection, schedule: Q04DX003 (ip), vehicle: saline 104 % of control | dose: 400.0 mg/kg/injection, schedule: Q01DX009 (ip), vehicle: saline 94 % of control | dose: 400.0 mg/kg/injection, schedule: Q04DX003 (ip), vehicle: saline 97 % of control

CCCCCCCC(=O)Nc1ccc(F)cc1
inactive: dose: 100.0 mg/kg/injection, schedule: Q04DX003 (ip), vehicle: acetone 95 % of control | dose: 200.0 mg/kg/injection, schedule: Q04DX003 (ip), vehicle: acetone 95 % of control | dose: 400.0 mg/kg/injection, schedule: Q04DX003 (ip), vehicle: acetone 90 % of control

CCCCCCCCCCC(CCCCCCCCCC)CC1CCCC1
inactive: dose: 75.0 mg/kg/injection, schedule: Q01DX001 (ip), vehicle: saline with Tween-80 100 % of control | dose: 150.0 mg/kg/injection, schedule: Q01DX001 (ip), vehicle: saline with Tween-80 103 % of control | dose: 300.0 mg/kg/injection, schedule: Q01DX001 (ip), vehicle: saline with Tween-80 97 % of control

CCOc1ccccc1NC(=O)CC(C)=O
inactive: [9] 89 % of control | [10] 88 % of control | [11] 93 % of control

C1CCC2C3CCC(C3)C2CC1 (configuration not stated)
inactive: dose: 100.0 mg/kg/injection, schedule: Q04DX002 (ip), vehicle: other 122 % of control | dose: 200.0 mg/kg/injection, schedule: Q04DX002 (ip), vehicle: other 92 % of control | dose: 400.0 mg/kg/injection, schedule: Q04DX002 (ip), vehicle: other 88 % of control

O=C(O)CN1C(=O)CN=C(c2ccccn2)c2cc(Cl)ccc21
inactive: [9] 99 % of control | [2] 100 % of control | [10] 100 % of control | [3] 100 % of control | [11] 97 % of control | [4] 97 % of control

C[C@]12CC[C@@H]3c4ccc(Oc5nc(N6CC6)nc(N6CC6)n5)cc4CC[C@H]3[C@@H]1CCC2=O
inactive: dose: 25.0 mg/kg/injection, schedule: Q01DX009 (ip), vehicle: steriod suspending solution 101 % of control | dose: 25.0 mg/kg/injection, schedule: Q01DX009 (oral), vehicle: carboxymethylcellulose (CMC) 106 % of control | dose: 25.0 mg/kg/injection, schedule: Q04DX003 (sc), vehicle: steriod suspending solution 106 % of control | dose: 50.0 mg/kg/injection, schedule: Q01DX009 (oral), vehicle: carboxymethylcellulose (CMC) 101 % of control | dose: 50.0 mg/kg/injection, schedule: Q04DX003 (sc), vehicle: steriod suspending solution 98 % of control | dose: 100.0 mg/kg/injection, schedule: Q01DX001 (sc), vehicle: steriod suspending solution 105 % of control | dose: 100.0 mg/kg/injection, schedule: Q01DX009 (oral), vehicle: carboxymethylcellulose (CMC) 104 % of control | dose: 100.0 mg/kg/injection, schedule: Q04DX003 (sc), vehicle: steriod suspending solution 101 % of control | dose: 200.0 mg/kg/injection, schedule: Q01DX001 (sc), vehicle: steriod suspending solution 118 % of control | dose: 400.0 mg/kg/injection, schedule: Q01DX001 (sc), vehicle: steriod suspending solution 107 % of control

CC1(c2ccccc2)OC(=O)c2c1ccc1ccccc21 (configuration not stated)
inactive: dose: 100.0 mg/kg/injection, schedule: Q01DX001 (ip), vehicle: saline with Tween-80 94 % of control | dose: 200.0 mg/kg/injection, schedule: Q01DX001 (ip), vehicle: saline with Tween-80 95 % of control | dose: 400.0 mg/kg/injection, schedule: Q01DX001 (ip), vehicle: saline with Tween-80 90 % of control
